Reference: patent publication US7772260B2, “Imidazo[2,1-b]-1,3,4-thiadiazole sulfonamides” (Aegera Therapeutics Inc., priority 2001, dated 2010)
Where a name gives a salt, the structure may show the parent alone.

What follows are molecules tested on SCG neurons (assay: cells). Details: Rattus norvegicus, Neuron, 48 h, read-out: IC(50), protection of SCG neurons from Taxol killing.
Assay type: cell-based, Sprague Dawley rats
Procedure: Taxol™ is regularly used in breast cancer chemotherapy. In cancer cells Taxol™ binds to the cyto-skeletal protein tubulin, thereby inhibiting normal microtubular assembly and inducing cellular apoptosis. Despite its potency as an anti-tumour agent, Taxol™ is also toxic to neurons, inducing dose limiting peripheral neuropathies. The addition of Taxol™ (100 ng/mL) to cultured SCG neurons induces the degradation or loss of upwards of 80% of the neurons.
FIG. 1 illustrates the protection provided by compound 1 (referred to here as AEG3482) against Taxol™ induced killing. PI Sprague Dawley rat SCG neurons were cultured and incubated with NGF (50 ng/mL) for 5 days.
`NS(=O)(=O)c1nn2cc(-c3cc4ccc5cccc6ccc(c3)c4c56)nc2s1` [Compound 64, 6-pyrenylimidazo[2,1-b]-1,3,4-thiadiazole-2-sulfonamide] was tested, and the IC50 was 10 µM.

Same assay, conditions: Rattus norvegicus, Neuron; Taxol™ (50 ng/mL), viability 48 hours later, MTS; read-out: IC(50), protection of SCG neurons from Taxol killing
Work on `Cc1c(-c2cn3nc(S(N)(=O)=O)sc3n2)cnn1-c1ccccc1` [Compound 120, 6-(5-methyl-1-phenyl-1H-pyrazol-4-yl)imidazo[2,1-b]-1,3,4-thiadiazole-2-sulfonamide] yielded an IC50 of 7 µM. Molecule `NS(=O)(=O)c1nn2cc(C34CC5CC(CC(C5)C3)C4)nc2s1` [Compound 60, 6-(1-adamantyl)imidazo[2,1-b]-1,3,4-thiadiazole-2-sulfonamide] has an IC50 of 25 µM. `NS(=O)(=O)c1nn2cc(-c3ccc(OCCCOCc4ccccc4)cc3)nc2s1` [Compound 32] gave an IC50 of 10 µM. With `CN(C)S(=O)(=O)c1nn2c(Br)c(-c3ccc(Br)cc3)nc2s1` [Compound 144, hydrobromide] the IC50 was 15 µM. Molecule `NS(=O)(=O)c1nn2cc(-c3ccc4ccccc4c3)nc2s1` [Compound 62, 6-(2-Naphthyl)imidazo[2,1-b]-1,3,4-thiadiazole-2-sulfonamide] has an IC50 of 15 µM. `NS(=O)(=O)c1nn2cc(-c3ccc(C(F)(F)F)cc3)nc2s1` [Compound 52, 6-(4-(Trifluoromethyl)phenyl)imidazo[2,1-b]-1,3,4-thiadiazole-2-sulfonamide] gave an IC50 of 3 µM. Molecule `CN(C)S(=O)(=O)c1nn2cc(-c3ccc(Br)cc3)nc2s1` [Compound 143, 6-(4-Bromophenyl)imidazo[2,1-b]-1,3,4-thiadiazole-2-N,N-dimethylsulfonamide] has an IC50 of 10 µM. With `NS(=O)(=O)c1nn2cc(-c3nccs3)nc2s1` [Compound 121, 6-(Thiaxol-2-yl)imidazo[2,1-b]-1,3,4-thiadiazole-2-sulfonamide] the IC50 was 2 µM. With `NS(=O)(=O)c1nn2c(-c3ccccc3)c(-c3ccccc3)nc2s1` [Compound 66, 5,6-Diphenyl-imidazo[2,1-b]-1,3,4-thiadiazole-2-sulfonamide] the IC50 was 20 µM. `CC(=O)N[C@@H](C)c1ccc(-c2cn3nc(S(N)(=O)=O)sc3n2)cc1` [Compound 58, 6-(4-(S-1-acetamidoethyl)phenyl)imidazo[2,1-b]-1,3,4-thiadiazole-2-sulfonamide] was tested, and the IC50 was 30 µM. For `COc1ccc2ccc(-c3cn4nc(S(N)(=O)=O)sc4n3)cc2c1Br` [Compound 63, 6-(8-Bromo-7-methoxylnaphth-2-yl)imidazo[2,1-b]-1,3,4-thiadiazole-2-sulfonamide], the IC50 was 7 µM. For `NS(=O)(=O)c1nn2cc(-c3ccc(B(O)O)cc3)nc2s1` [Compound 71], the IC50 was > 30 µM. `COC(=O)COc1ccc(-c2cn3nc(S(N)(=O)=O)sc3n2)cc1` [Compound 101] was tested, and the IC50 was > 30 µM. `NS(=O)(=O)c1nn2cc(-c3ccc(OCCOCc4ccccc4)cc3)nc2s1` [Compound 31, 6-(4′-(2-Benzyloxyethoxy)phenyl)-imidazo[2,1-b]-1,3,4-thidiazole-2 sulfonamide] was tested, and the IC50 was 10 µM. Work on `NS(=O)(=O)c1nn2cc(-c3ccncc3)nc2s1` [Compound 107, 6-(4-Pyridyl)imidazo[2,1-b]-1,3,4-thiadiazole-2-sulfonamide] yielded an IC50 of 20 µM. Work on `COCCOCCOc1ccc(-c2cn3nc(S(N)(=O)=O)sc3n2)cc1` [Compound 30] yielded an IC50 of 10 µM. Work on `NS(=O)(=O)c1nn2c(Br)c(-c3ccc(Br)cc3)nc2s1` [Compound 128, 5-Bromo-6-(4-bromophenyl)imidazo[2,1-b]-1,3,4-thiadiazole-2-sulfonamide hydrobromide] yielded an IC50 of 2 µM. `Nc1ccc(-c2cn3nc(S(N)(=O)=O)sc3n2)cc1` [Compound 70, 6-(4-Aminophenyl)imidazo[2,1-b]-1,3,4-thiadiazole-2-sulfonamide] was tested, and the IC50 was 22 µM. Molecule `Cc1c(-c2cn3nc(S(N)(=O)=O)sc3n2)sc2ccccc12` [Compound 115, 6-(3-Methylbenzo[b]thiophen-2-yl)imidazo[2,1-b]-1,3,4-thiadiazole-2-sulfonamide] has an IC50 of 7 µM. `CNS(=O)(=O)c1nn2cc(-c3c(F)c(F)c(F)c(F)c3F)nc2s1` [Compound 138, 6-(2,3,4,5,6-pentafluorophenyl)imidazo[2,1-b]-1,3,4-thiadiazole-2-N-methylsulfonamide] gave an IC50 of 2 µM. For `CN(C)S(=O)(=O)c1nn2cc(-c3c(F)c(F)c(F)c(F)c3F)nc2s1` [Compound 140, 6-(2,3,4,5,6-pentafluorophenyl)imidazo[2,1-b]-1,3,4-thiadiazole-2-N,N-dimethylsulfonamide], the IC50 was 5 µM. `NS(=O)(=O)c1nn2cc(-c3ccc(N4CCCCC4)cc3)nc2s1` [Compound 67, 6-(4-Piperidinophenyl)imidazo[2,1-b]-1,3,4-thiadiazole-2-sulfonamide] gave an IC50 of 10 µM. For `NS(=O)(=O)c1nn2cc(-c3cc(C(F)(F)F)cc(C(F)(F)F)c3)nc2s1` [Compound 54, 6-(3,5-di(trifluoromethyl)phenyl)imidazo[2,1-b]-1,3,4-thiadiazole-2-sulfonamide], the IC50 was 10 µM. With `NS(=O)(=O)c1nn2cc(-c3ccc(-c4c(F)c(F)c(F)c(F)c4F)cc3)nc2s1` [Compound 73, 6-(4-(2,3,4,5,6-tetrafluorophenyl)phenyl)imidazo[2,1-b]-1,3,4-thiadiazole-2-sulfonamide] the IC50 was 2 µM. Work on `NS(=O)(=O)c1nn2c(Br)c(-c3ccccn3)nc2s1` [Compound 125, 5-Bromo-6-(2-pyridyl)imidazo[2,1-b]-1,3,4-thiadiazole-2-sulfonamide hydrobromide] yielded an IC50 of 3 µM. Molecule `NS(=O)(=O)c1nn2cc(-c3csc4ccccc34)nc2s1` [Compound 116, 6-(Benzo[b]thiophen-3-yl)imidazo[2,1-b]-1,3,4-thiadiazole-2-sulfonamide] has an IC50 of 7 µM. Molecule `CN(C)S(=O)(=O)c1nn2cc(-c3cccc(O)c3)nc2s1` [Compound 145] has an IC50 of 20 µM. `NS(=O)(=O)c1nn2cc(-c3ccc4c(c3)NC(=O)CO4)nc2s1` [Compound 110] was tested, and the IC50 was > 30 µM. With `NS(=O)(=O)c1nn2c(Cl)c(-c3ccccc3)nc2s1` [Compound 123, 5-Chloro-6-phenyl-imidazo[2,1-b]-1,3,4-thiadiazole-sulfonamide] the IC50 was > 30 µM. `CC(C)(C)c1cc(-c2cn3nc(S(N)(=O)=O)sc3n2)cc(C(C)(C)C)c1O` [Compound 55, 6-(3,4-Di-tert-butyl-4-hydroxyphenyl)imidazo[2,1-b]-1,3,4-thiadiazole-2-sulfonamide] was tested, and the IC50 was 15 µM. With `Cc1ccc(-c2nc3sc(S(N)(=O)=O)nn3c2C)cc1Cl` [Compound 104, 6-(3-chloro-4-methylphenyl)-5-methylimidazo[2,1-b]-1,3,4-thiadiazole-2-sulfonamide] the IC50 was 7 µM. `CN(C)S(=O)(=O)c1nn2cc(-c3c(F)c(F)c(N=[N+]=[N-])c(F)c3F)nc2s1` [Compound 152, 6-(4-azido-2,3,5,6-pentafluorophenyl)imidazo[2,1-b]-1,3,4-thiadiazole-2-N,N-dimethylsulfonamide] gave an IC50 of 2 µM. `NS(=O)(=O)c1nn2cc(-c3ccc([N+](=O)[O-])s3)nc2s1` [Compound 114, 6-(5-Nitro-2-thiophenyl)-imidazo[2,1-b]-1,3,4-thiadiazole-2-sulfonamide hydrobromide] was tested, and the IC50 was 7 µM.

Same assay, conditions: concentrations as high as 50 μM
For `CCN[C@H]1C[C@H](C)S(=O)(=O)c2sc(S(N)(=O)=O)cc21` [Dorzolamide, reference compound], the “inhibition of Taxol™ induced killing of SCGs” value was “failed to significantly inhibit”. For `CC(=O)/N=c1/sc(S(N)(=O)=O)nn1C` [methazolamide, reference compound], the “inhibition of Taxol™ induced killing of SCGs” value was “failed to significantly inhibit”.
